Counter-ions that a name gives are not always drawn.
How the values were obtained:
[1] = target: HSP90α (Homo sapiens, UniProt P07900); test: HSP90α Binding Fluorescent Polarization (FP) Assay; details: competition with FITC-geldanamycin; read-out: HSP90 Binding Potency
How it was run: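 Duplicate wells held BSA buffer, FITC-geldanamycin tracer, compound (3-fold dilution plate spanning 40 μM–2.0 nM) and recombinant protein diluted to 28 μg/ml before addition. Polarization read at 30, 60 and 120 min, 25 °C. Background-corrected mP values gave IC50 through a four-parameter inhibitor-response fit.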

[2] = system: MV4-11 cells; test: MV4-11 Cell Cytotoxicity Assay; assay type: cell-based, human; details: human, MV4-11 cells, CCK-8
Text: % Inhibition=100−(D−B)/(S−B)*100%.
S: The absorbance of the maximum (cells with DMSO)
B: The absorbance of the minimum (medium with DMSO)

[3] = target: T1, BRD4 (BD1+BD2) (Homo sapiens, UniProt O60885); details: read-out: BRD4 Binding Potency
T1 construct: 1.8 μg/ml recombinant BRD4 (BD1+BD2 domains) protein

SMILES	IC50 [1]	IC50 at 72 h [2]	IC50 [3]
Cc1sc2c(c1C)C(c1ccc(Cl)cc1)=N[C@@H](CC(=O)N1CCC(CN3CCN(Cc4ccc(-n5c(C(N)=O)nnc5-c5cc(C(C)C)c(O)cc5O)cc4)CC3)CC1)c1nnc(C)n1-2 [Compound 109, (S)-4-(4-((4-((1-(2-(4-(4-chlorophenyl)-2,3,9-trimethyl-6H-thieno[3,2-f][1,2,4]triazolo[4,3-a][1,4]diazepin-6-yl)acetyl)piperidin-4-yl)methyl)piperazin-1-yl)methyl)phenyl)-5-(2,4-dihydroxy-5-isopropylphenyl)-4H-1,2,4-triazole-3-carboxamide, trifluoroacetic acid]	100 to 1000 nM	< 100 nM	< 100 nM
Cc1sc2c(c1C)C(c1ccc(Cl)cc1)=N[C@@H](CC(=O)N1CCC(CN3CCN(Cc4ccc(-n5c(C(=O)NCCN6CCCCC6)nnc5-c5ccc(O)cc5O)cc4)CC3)CC1)c1nnc(C)n1-2 [Compound 110, (S)-4-(4-((4-((1-(2-(4-(4-chlorophenyl)-2,3,9-trimethyl-6H-thieno[3,2-f][1,2,4]triazolo[4,3-a][1,4]diazepin-6-yl)acetyl)piperidin-4-yl)methyl)piperazin-1-yl)methyl)phenyl)-5-(2,4-dihydroxyphenyl)-N-(2-(piperidin-1-yl)ethyl)-4H-1,2,4-triazole-3-carboxamide, trifluoroacetic acid]	100 to 1000 nM	100 to 1000 nM	< 100 nM
CCN(CC)CCNC(=O)c1nnc(-c2ccc(O)cc2O)n1-c1ccc(CN2CCN(CC3CCN(C(=O)C[C@@H]4N=C(c5ccc(Cl)cc5)c5c(sc(C)c5C)-n5c(C)nnc54)CC3)CC2)cc1 [Compound 111, (S)-4-(4-((4-((1-(2-(4-(4-chlorophenyl)-2,3,9-trimethyl-6H-thieno[3,2-f][1,2,4]triazolo[4,3-a][1,4]diazepin-6-yl)acetyl)piperidin-4-yl)methyl)piperazin-1-yl)methyl)phenyl)-N-(2-(diethylamino)ethyl)-5-(2,4-dihydroxyphenyl)-4H-1,2,4-triazole-3-carboxamide, trifluoroacetic acid]	100 to 1000 nM	< 100 nM	< 100 nM
Cc1sc2c(c1C)C(c1ccc(Cl)cc1)=N[C@@H](CC(=O)N1CCC(CN3CCN(Cc4ccc(-n5c(C(N)=O)nnc5-c5ccc(O)cc5O)cc4)CC3)CC1)c1nnc(C)n1-2 [Compound 112, (S)-4-(4-((4-((1-(2-(4-(4-chlorophenyl)-2,3,9-trimethyl-6H-thieno[3,2-f][1,2,4]triazolo[4,3-a][1,4]diazepin-6-yl)acetyl)piperidin-4-yl)methyl)piperazin-1-yl)methyl)phenyl)-5-(2,4-dihydroxyphenyl)-4H-1,2,4-triazole-3-carboxamide, trifluoroacetic acid]	100 to 1000 nM	< 100 nM	< 100 nM
CCc1cc(-c2nnc(C(=O)NCCN3CCCCC3)n2-c2ccc(CN3CCN(CC4CCN(C(=O)C[C@@H]5N=C(c6ccc(Cl)cc6)c6c(sc(C)c6C)-n6c(C)nnc65)CC4)CC3)cc2)c(O)cc1O [Compound 117, (S)-4-(4-((4-((1-(2-(4-(4-chlorophenyl)-2,3,9-trimethyl-6H-thieno[3,2-f][1,2,4]triazolo[4,3-a][1,4]diazepin-6-yl)acetyl)piperidin-4-yl)methyl)piperazin-1-yl)methyl)phenyl)-5-(5-ethyl-2,4-dihydroxyphenyl)-N-(2-(piperidin-1-yl)ethyl)-4H-1,2,4-triazole-3-carboxamide, trifluoroacetic acid]	100 to 1000 nM	< 100 nM	< 100 nM
CCN(CC)CCNC(=O)c1nnc(-c2cc(C(C)C)c(O)cc2O)n1-c1ccc(CN2CCN(CC3CCN(C(=O)C[C@@H]4N=C(c5ccc(Cl)cc5)c5c(sc(C)c5C)-n5c(C)nnc54)CC3)CC2)cc1 [Compound 118, (S)-4-(4-((4-((1-(2-(4-(4-chlorophenyl)-2,3,9-trimethyl-6H-thieno[3,2-f][1,2,4]triazolo[4,3-a][1,4]diazepin-6-yl)acetyl)piperidin-4-yl)methyl)piperazin-1-yl)methyl)phenyl)-N-(2-(diethylamino)ethyl)-5-(2,4-dihydroxy-5-isopropylphenyl)-4H-1,2,4-triazole-3-carboxamide, trifluoroacetic acid]	100 to 1000 nM	< 100 nM	< 100 nM
Cc1sc2c(c1C)C(c1ccc(Cl)cc1)=N[C@@H](CC(=O)N1CCC(CN3CCN(Cc4ccc(-n5c(C(=O)NC(C)C)nnc5-c5ccc(O)cc5O)cc4)CC3)CC1)c1nnc(C)n1-2 [Compound 119, (S)-4-(4-((4-((1-(2-(4-(4-chlorophenyl)-2,3,9-trimethyl-6H-thieno[3,2-f][1,2,4]triazolo[4,3-a][1,4]diazepin-6-yl)acetyl)piperidin-4-yl)methyl)piperazin-1-yl)methyl)phenyl)-5-(2,4-dihydroxyphenyl)-N-isopropyl-4H-1,2,4-triazole-3-carboxamide, trifluoroacetic acid]	100 to 1000 nM	< 100 nM	< 100 nM
CCCc1cc(-c2nnc(C(=O)NCCN3CCCCC3)n2-c2ccc(CN3CCN(CC4CCN(C(=O)C[C@@H]5N=C(c6ccc(Cl)cc6)c6c(sc(C)c6C)-n6c(C)nnc65)CC4)CC3)cc2)c(O)cc1O [Compound 123, (S)-4-(4-((4-((1-(2-(4-(4-chlorophenyl)-2,3,9-trimethyl-6H-thieno[3,2-f][1,2,4]triazolo[4,3-a][1,4]diazepin-6-yl)acetyl)piperidin-4-yl)methyl)piperazin-1-yl)methyl)phenyl)-5-(2,4-dihydroxy-5-propylphenyl)-N-(2-(piperidin-1-yl)ethyl)-4H-1,2,4-triazole-3-carboxamide, trifluoroacetic acid]	100 to 1000 nM	< 100 nM	< 100 nM
Cc1cc(-c2nnc(C(=O)NCCN3CCCCC3)n2-c2ccc(CN3CCN(CC4CCN(C(=O)C[C@@H]5N=C(c6ccc(Cl)cc6)c6c(sc(C)c6C)-n6c(C)nnc65)CC4)CC3)cc2)c(O)cc1O [Compound 124, (S)-4-(4-((4-((1-(2-(4-(4-chlorophenyl)-2,3,9-trimethyl-6H-thieno[3,2-f][1,2,4]triazolo[4,3-a][1,4]diazepin-6-yl)acetyl)piperidin-4-yl)methyl)piperazin-1-yl)methyl)phenyl)-5-(2,4-dihydroxy-5-methylphenyl)-N-(2-(piperidin-1-yl)ethyl)-4H-1,2,4-triazole-3-carboxamide, trifluoroacetic acid]	100 to 1000 nM	< 100 nM	< 100 nM
Cc1sc2c(c1C)C(c1ccc(Cl)cc1)=N[C@H](CC(=O)N1CCC(CN3CCN(Cc4ccc(-n5c(O)nnc5-c5cc(C(C)C)c(O)cc5O)cc4)CC3)CC1)c1nnc(C)n1-2 [Compound 125, (R)-2-(4-(4-chlorophenyl)-2,3,9-trimethyl-6H-thieno[3,2-f][1,2,4]triazolo[4,3-a][1,4]diazepin-6-yl)-1-(4-((4-(4-(3-(2,4-dihydroxy-5-isopropylphenyl)-5-hydroxy-4H-1,2,4-triazol-4-yl)benzyl)piperazin-1-yl)methyl)piperidin-1-yl)ethan-1-one hydrochloride]	< 100 nM	< 100 nM	> 1000 nM
CCNC(=O)c1noc(-c2cc(C(C)C)c(O)cc2O)c1-c1ccc(CN2CCN(CC3CCN(C(=O)C[C@@H]4N=C(c5ccc(Cl)cc5)c5c(sc(C)c5C)-n5c(C)nnc54)CC3)CC2)cc1 [Compound 126, (S)-4-(4-((4-((1-(2-(4-(4-chlorophenyl)-2,3,9-trimethyl-6H-thieno[3,2-f][1,2,4]triazolo[4,3-a][1,4]diazepin-6-yl)acetyl)piperidin-4-yl)methyl)piperazin-1-yl)methyl)phenyl)-5-(2,4-dihydroxy-5-isopropylphenyl)-N-ethylisoxazole-3-carboxamide hydrochloride]	100 to 1000 nM	< 100 nM	100 to 1000 nM
Cc1sc2c(c1C)C(c1ccc(Cl)cc1)=N[C@@H](CC(=O)NCCOCCOCCN[C@@H](C)C(=O)N[C@H](C(=O)N1CCC[C@H]1C(=O)Nc1snnc1-c1ccccc1)C1CCCCC1)c1nnc(C)n1-2 [Compound 128, (S)-1-((2S,5S)-17-((S)-4-(4-chlorophenyl)-2,3,9-trimethyl-6H-thieno[3,2-f][1,2,4]triazolo[4,3-a][1,4]diazepin-6-yl)-2-cyclohexyl-5-methyl-4,16-dioxo-9,12-dioxa-3,6,15-triazaheptadecanoyl)-N-(4-phenyl-1,2,3-thiadiazol-5-yl)pyrrolidine-2-carboxamide]	> 1000 nM	> 1000 nM	> 1000 nM
Cc1sc2c(c1C)C(c1ccc(Cl)cc1)=N[C@@H](CC(=O)N1CCC(CN[C@@H](C)C(=O)N[C@H](C(=O)N3CCC[C@H]3C(=O)Nc3snnc3-c3ccccc3)C3CCCCC3)CC1)c1nnc(C)n1-2 [Compound 129, (S)-1-((S)-2-((S)-2-(((1-(2-((S)-4-(4-chlorophenyl)-2,3,9-trimethyl-6H-thieno[3,2-f][1,2,4]triazolo[4,3-a][1,4]diazepin-6-yl)acetyl)piperidin-4-yl)methyl)amino)propanamido)-2-cyclohexylacetyl)-N-(4-phenyl-1,2,3-thiadiazol-5-yl)pyrrolidine-2-carboxamide]	> 1000 nM	> 1000 nM	> 1000 nM
